Assay results published in publication PMC2691174 (Cancer, 2009).
Read-outs that look alike come from different tables or passages of the source. Each block holds one molecule with its values, some of them ahead of it.

Legend:
[1] = Plasma pharmacokinetics of hydroxyurea; details: for AUC0−12 / 0−12 Mean(Range) / Cl/F Mean(Range) / Cmax/D Mean(Range) / t1/2 Mean(Range) / tmax Mean(Range): hydroxyurea 500 mg twice-a-day
[2] = Plasma pharmacokinetics of vatalanib; type: in vivo, human; details: for Tmax: human, plasma, oral, tmax Mean(Range)
PDGFRβ = details: cited from earlier work
[3] = system: recurrent malignant glioma patients; test: Phase I dose escalation: MTD, DLT and toxicity; details: all patients, with imatinib and hydroxyurea
[4] = for tmax Mean(Range): stratum A (no EIAEDs, N=14), imatinib 400 mg/day
recurrent GBM patients = details: single agent; cited from earlier work
[5] = system: patients with newly diagnosed glioblastoma (GBM); details: radiotherapy plus temozolomide; cited from earlier work
[6] = stratum A (no EIAEDs, N=14), day 8 of cycle 1
[7] = stratum A (no EIAEDs, N=14), day 35 of cycle 1
[8] = stratum B (on EIAEDs, N=6), day 8 of cycle 1
[9] = stratum B (on EIAEDs, N=6), day 35 of cycle 1
[10] = stratum B (on EIAEDs, N=8), day 7 (vatalanib alone, steady state)
[11] = stratum B (on EIAEDs, N=8), day 35 (with imatinib and hydroxyurea)
[12] = stratum A (no EIAEDs, N=15), day 7 (vatalanib alone, steady state)
[13] = stratum A (no EIAEDs, N=15), day 35 (with imatinib and hydroxyurea)

effect of EIAEDs or time on hydroxyurea pharmacokinetics ([1]; in vivo): no relevant effect
AUC0−12 / 0−12 Mean(Range) [1, 6]: 50.4(9.50−91.1) ng/mL*h/mg
Cl/F Mean(Range) [1, 6]: 15.2(5.50−52.5) L/h
Cmax/D Mean(Range) [1, 6]: 18.5(6.80−29.6) ng/mL/mg
t1/2 Mean(Range) [1, 6]: 4.84(1.60−12.5) h
tmax Mean(Range) [1, 6]: 1.29(0.50−2.00) h
AUC0−12 / 0−12 Mean(Range) [1, 7]: 41.7(13.0−84.5) ng/mL*h/mg
Cl/F Mean(Range) [1, 7]: 15.4(5.90−38.4) L/h
Cmax/D Mean(Range) [1, 7]: 19.4(5.60−32.6) ng/mL/mg
t1/2 Mean(Range) [1, 7]: 3.29(1.40−6.80) h
tmax Mean(Range) [1, 7]: 1.30(0.50−4.00) h
AUC0−12 / 0−12 Mean(Range) [1, 8]: 37.38(18.1−60.4) ng/mL*h/mg
Cl/F Mean(Range) [1, 8]: 16.4(8.3−27.6) L/h
Cmax/D Mean(Range) [1, 8]: 16.5(7.60−35.0) ng/mL/mg
t1/2 Mean(Range) [1, 8]: 3.5(2.70−5.40) h
tmax Mean(Range) [1, 8]: 1.80(0.50−4.00) h
AUC0−12 / 0−12 Mean(Range) [1, 9]: 41.4(17.0−70.1) ng/mL*h/mg
Cl/F Mean(Range) [1, 9]: 15.4(7.10−29.4) L/h
Cmax/D Mean(Range) [1, 9]: 19.0(7.80−31.4) ng/mL/mg
t1/2 Mean(Range) [1, 9]: 7.12(2.50−21.5) h
tmax Mean(Range) [1, 9]: 0.90(0.50−1.50) h
SMILES: NC(=O)NO [Hydroxyurea]

SMILES: Clc1ccc(Nc2nnc(Cc3ccncc3)c3ccccc23)cc1 [vatalanib]
effect of vatalanib dose on vatalanib pharmacokinetic parameters ([2]; 500 to 1250 mg twice daily): no significant effect
decrease of vatalanib Cmax/D by use of EIAEDs ([2]; day 7): approximately 3 fold
effect of EIAEDs on vatalanib plasma t1/2 ([2]; day 7): not significantly affecting
increase of vatalanib CL/F by use of EIAEDs ([2]; day 7): approximately 3 fold
increase of vatalanib V/F by use of EIAEDs ([2]; day 7): more than 3 fold
Tmax [2, 10]: 1.79 h
Tmax [2, 11]: 2.13 h
AUC0−12 / 0−12 Mean(Range) [2, 12]: 11.1(2.23−16.1) ng/mL*h/mg
Cl/F Mean(Range) [2, 12]: 122(62.0−448) L/h
Cmax/D Mean(Range) [2, 12]: 3.12(0.72−5.03) ng/mL/mg
AUC0−12 / 0−12 Mean(Range) [2, 13]: 10.4(3.28−25.5) ng/mL*h/mg
Cl/F Mean(Range) [2, 13]: 137(39.3−305) L/h
Cmax/D Mean(Range) [2, 13]: 2.82(0.82−7.38) ng/mL/mg
AUC0−12 / 0−12 Mean(Range) [2, 10]: 4.51(1.31−12.1) ng/mL*h/mg
Cl/F Mean(Range) [2, 10]: 377(82.3−765) L/h
Cmax/D Mean(Range) [2, 10]: 1.15(0.40−2.46) ng/mL/mg
AUC0−12 / 0−12 Mean(Range) [2, 11]: 6.75(0.73−17.7) ng/mL*h/mg
Cl/F Mean(Range) [2, 11]: 368(56.5−1371) L/h
Cmax/D Mean(Range) [2, 11]: 1.91(0.16−6.52) ng/mL/mg
PDGFRβ IC50 relative to that of imatinib (PDGFRβ): approximately twice
recommended vatalanib dose ([3]; irrespective of EIAEDs): 1000 mg twice-a-day
MTD of vatalanib ([3]; continuous daily schedule): 1000 mg twice-a-day

tmax Mean(Range) ([4]; day 8 of cycle 1): 3.43(2.00−6.00) h
tmax Mean(Range) ([4]; day 35 of cycle 1): 3.57(1.00−8.00) h
SMILES: Cc1ccc(NC(=O)c2ccc(CN3CCNCC3)cc2)cc1Nc1nccc(-c2cccnc2)n1 [CGP74588]

SMILES: COc1cc2c(Oc3ccc4[nH]c(C)cc4c3F)ncnc2cc1OCCCN1CCCC1 [cedarinib]
median PFS (recurrent GBM patients): 16 weeks
radiographic response rate (recurrent GBM patients): 50%

SMILES: Cn1nnc2c(C(N)=O)ncn2c1=O [temozolomide]
median progression-free survival (PFS) [5]: 6.9 months

SMILES: Cc1ccc(NC(=O)c2ccc(CN3CCN(C)CC3)cc2)cc1Nc1nccc(-c2cccnc2)n1 [Imatinib]
effect of hydroxyurea on imatinib pharmacokinetics ([4]; fully apparent at day 35, more pronounced in patients taking EIAEDs): increase in Cmax/D and decreases in CL/F and V/F
